The values that follow come from patent publication US9115148B2, “Spirocyclic derivatives as histone deacetylase inhibitors” (DAC S.R.L., priority 2008, dated 2015).

One test concerns HCT-116 cells. Briefly: Cell growth, CellTiter-Glo Luminescent Cell Viability Assay, HCT-116. It is filed as cell-based. The following applies: Homo sapiens, HCT116 cells, 72 h incubation, read-out: IC50 antiproliferative assay HCT116. From the text:
(§1) CellTiter-Glo® Luminescent Cell Viability Assay (Promega) is a homogeneous method of determining the number of viable cells in culture based on quantitation of the present ATP, which indicates the presence of metabolically active cells. The homogeneous assay procedure involves addition of a single reagent (CellTiter-Glo® Reagent) directly to the cells, which leads to cell lysis and generation of a luminescent signal proportional to the amount of the ATP and the number of cells present in culture. The assay relies on the properties of a proprietary thermostable luciferase (Ultra-Glo® recombinant luciferase), which generates a luminescent signal.
(§2) K562, A549 and HCT-116 cells, in exponential growth, were incubated for 72 h with different concentrations of the inhibitors. After 72 h, a volume of CellTiter-Glo® Reagent equal to the volume of cell culture medium was added. The content was mixed for 2 min to induce cell lysis. The luminescence was recorded after further 10 min at RT in order to obtain a stabilized luminescent signal.
(§3) The IC50 was calculated using GraphPad Software.
(§4) IC50 results were allocated to one of 3 ranges as follows: Range A: IC50≦1.0 μM; Range B: from 1.0 to 3.0 μM; Range C: IC50≧3.0 μM.
(In general: In ATP-based viability assays light output follows the ATP content of the culture.)

The subject of another test is A549 cells. Briefly: Cell growth, CellTiter-Glo Luminescent Cell Viability Assay, A549. To be noted: Homo sapiens, 72 h incubation, read-out: IC50 antiproliferative assay A549. It counts as cell-based.
Source text: as §1, §2, §3, §4

The test system of the next test is K562 cells. Briefly: Cell growth, CellTiter-Glo Luminescent Cell Viability Assay, K562. It is filed as cell-based. The following applies: Homo sapiens, 72 h incubation, read-out: IC50 antiproliferative assay K562.
Source text: as §1, §2, §3, §4

In test [1] the test system is HDAC (nuclear fraction of Hela cells). Nature of the test: Assay of enzyme inhibition of HDAC (BIOMOL Kit). To be noted: substrate 200 μM, 15 min at RT. It is filed as biochemical. The procedure: 2.2 Assay of Enzyme Inhibition of HDAC
The in-vitro activity of HDAC inhibitors was assayed using a BIOMOL Kit, according to the instructions from the manufacturer (Biomolecular Research Laborator). 15 μl of 30× diluted nuclear fraction of Hela cells, was diluted to 50 μl with the assay buffer containing the HDAC inhibitor and the substrate (lysine with acetylated amino group on the side chain) at a concentration of 200 μM. The samples were incubated for 15 min at RT and then exposed to a developer (10 min at RT). In this last step a fluorophore was produced, whose fluorescence was measured using an excitation wavelength of 355 nm and an emission at 460 nm. The IC50 was calculated using GraphPad Software.

One may read the IC50 as the concentration at which inhibition is half-maximal. Take `O=C(/C=C/c1ccc2c(c1)C(O)CC1(CCN(Cc3ccccc3)CC1)O2)NO` (stereo not shown) [Example 14, (E)-3-{1′-Benzyl-4-hydroxy-spiro[chromane-2,4′-piperidine]-6-yl}-N-hydroxy-acrylamide]: the IC50 was 1000 to 3000 nM in the test on HCT-116 cells, ≥ 3000 nM in the test with A549 cells, 1000 to 3000 nM with K562 cells and > 1000 nM in test [1].
Regarding `O=C(/C=C/c1ccc2c(c1)C=CC1(CCN(Cc3ccccc3)CC1)O2)NO` [Example 15, (E)-3-{1′-Benzyl-spiro[chromene-2,4′-piperidine]-6-yl}-N-hydroxy-acrylamide], the half-maximal inhibitory concentration (IC50) is ≥ 3000 nM in the test on HCT-116 cells, ≥ 3000 nM with A549 cells, ≥ 3000 nM in the test with K562 cells and > 1000 nM in test [1].
Regarding `CC(=O)NC1CC2(CCN(Cc3ccccc3)CC2)Oc2ccc(/C=C/C(=O)NO)cc21` (stereo not shown) [Example 16, (E)-3-{1′-Benzyl-4-acetylamino-spiro[chromane-2,4′-piperidine]-6-yl}-N-hydroxy-acrylamide], the IC50 in the test with HCT-116 cells was ≥ 3000 nM; in the test with A549 cells, ≥ 3000 nM; in the test on K562 cells, ≥ 3000 nM; in test [1], > 1000 nM.
Consider `O=C(/C=C/c1ccc2c(c1)/C(=N/O)CC1(CCN(Cc3ccccc3)CC1)O2)NO` [Example 19, (E)-3-{1′-Benzyl-4-hydroxyimino-spiro[chromane-2,4′-piperidine]-6-yl}-N-hydroxy-acrylamide], for which the IC50 in the test with HCT-116 cells was ≤ 1000 nM; in the test with A549 cells it was 1000 to 3000 nM; in the test with K562 cells it was 1000 to 3000 nM; in test [1], < 100 nM.
`O=C(/C=C/c1ccc2c(c1)C(=O)C1(CCNCC1)O2)NO` [Example 20, (E)-3-{3-oxo-spiro[benzofuran-2(3H), 4′-piperidin]-5-yl}-N-hydroxy-acrylamide]: the IC50 with HCT-116 cells is ≤ 1000 nM; in the test with A549 cells, 1000 to 3000 nM; in the test with K562 cells, 1000 to 3000 nM; in test [1] it was 100 to 1000 nM.
For the compound `O=C(/C=C/c1ccc2c(c1)C(=O)C1(CCN(Cc3ccccc3)CC1)O2)NO` [Example 21, (E)-3-{1′-Benzyl-3-oxo-spiro[benzofuran-2(3H), 4′-piperidin]-5-yl}-N-hydroxy-acrylamide], the IC50 with HCT-116 cells was ≥ 3000 nM; with A549 cells, ≥ 3000 nM; in the test with K562 cells, ≥ 3000 nM; in test [1] it was 100 to 1000 nM.
Take `CC(=O)N1CCC2(CC1)Oc1ccc(/C=C/C(=O)NO)cc1C2=O` [Example 22, (E)-3-{1′-Acetyl-3-oxo-spiro[benzofuran-2(3H), 4′-piperidin]-5-yl}-N-hydroxy-acrylamide]: the IC50 in the test on HCT-116 cells was ≥ 3000 nM; in the test on A549 cells, ≥ 3000 nM; with K562 cells it was ≥ 3000 nM; in test [1], > 1000 nM.
For `O=C(/C=C/c1ccc2c(c1)C(=O)C1(CCN(C(=O)c3ccccc3)CC1)O2)NO` [Example 23, (E)-3-{1′-Benzoyl-3-oxo-spiro[benzofuran-2(3H), 4′-piperidin]-5-yl}-N-hydroxy-acrylamide], the IC50 in the test with HCT-116 cells was ≥ 3000 nM; in the test on A549 cells, ≥ 3000 nM; in the test on K562 cells it was ≥ 3000 nM; in test [1] it was > 1000 nM.
With `CCOC(=O)N1CCC2(CC1)Oc1ccc(/C=C/C(=O)NO)cc1C2=O` [Example 24, (E)-3-{1′-Ethyloxycarbonyl-3-oxo-spiro[benzofuran-2(3H), 4′-piperidin]-5-yl}-N-hydroxy-acrylamide], the IC50 with HCT-116 cells is ≥ 3000 nM; in the test on A549 cells, ≥ 3000 nM; in the test with K562 cells it was 1000 to 3000 nM; in test [1] it was > 1000 nM.
Consider `O=C(/C=C/c1ccc2c(c1)C(=O)NC1(CCN(Cc3ccccc3)CC1)O2)NO` [Example 25, (E)-3-{1′-Benzyl-3,4-dihydro-4-oxo-spiro[2H-(1,3)-benzoxazine-2,4′-piperidin]-6-yl}-N-hydroxy-acrylamide], for which the IC50 in the test with HCT-116 cells was ≤ 1000 nM; in the test with A549 cells, 1000 to 3000 nM; in the test with K562 cells, ≤ 1000 nM; in test [1] it was < 100 nM.
On to `O=C(/C=C/c1ccc2c(c1)C(=O)NC1(CCN(Cc3ccccc3)CC1)N2)NO` [Example 26, (E)-3-{1-Benzyl-3′,4′-dihydro-4′-oxo-spiro[piperidine-4,2′(1′H)-quinazoline]-6′-yl}-N-hydroxy-acrylamide], for which the IC50 in the test with HCT-116 cells is ≥ 3000 nM; in the test on A549 cells it was ≥ 3000 nM; in the test with K562 cells, ≥ 3000 nM; in test [1], 100 to 1000 nM.
With `O=C(/C=C/c1ccc2c(c1)C(=O)CC1(CCN(c3ncccn3)CC1)O2)NO` [Example 27, (E)-3-{1′-Pyrimidin-2-yl-4-oxo-spiro[chromane-2,4′-piperidine]-6-yl}-N-hydroxy-acrylamide], the IC50 is 1000 to 3000 nM in the test on HCT-116 cells, ≥ 3000 nM with A549 cells, ≥ 3000 nM in the test on K562 cells and 100 to 1000 nM in test [1].
`Cc1ccccc1CN1CCC2(CC1)CC(=O)c1cc(/C=C/C(=O)NO)ccc1O2` [Example 28, (E)-3-{1′-(2-Methyl-benzyl)-4-oxo-spiro[chromane-2,4′-piperidine]-6-yl}-N-hydroxy-acrylamide]: the IC50 is 1000 to 3000 nM in the test on HCT-116 cells, 1000 to 3000 nM in the test on A549 cells, ≤ 1000 nM in the test with K562 cells and 100 to 1000 nM in test [1].
On to `Cc1cccc(CN2CCC3(CC2)CC(=O)c2cc(/C=C/C(=O)NO)ccc2O3)c1` [Example 29, (E)-3-{1′-(3-Methyl-benzyl)-4-oxo-spiro[chromane-2,4′-piperidine]-6-yl}-N-hydroxy-acrylamide], for which the IC50 in the test with HCT-116 cells was ≤ 1000 nM; in the test with A549 cells, 1000 to 3000 nM; with K562 cells it was ≤ 1000 nM; in test [1], 100 to 1000 nM.
Turning to `Cc1ccc(CN2CCC3(CC2)CC(=O)c2cc(/C=C/C(=O)NO)ccc2O3)cc1` [Example 30, (E)-3-{1′-(4-Methyl-benzyl)-4-oxo-spiro[chromane-2,4′-piperidine]-6-yl}-N-hydroxy-acrylamide], the IC50 in the test with HCT-116 cells was ≤ 1000 nM; in the test with A549 cells, 1000 to 3000 nM; in the test on K562 cells, ≤ 1000 nM; in test [1], 100 to 1000 nM.
With `COc1ccccc1CN1CCC2(CC1)CC(=O)c1cc(/C=C/C(=O)NO)ccc1O2` [Example 31, (E)-3-{1′-(2-Methoxy-benzyl)-4-oxo-spiro[chromane-2,4′-piperidine]-6-yl}-N-hydroxy-acrylamide], the IC50 in the test on HCT-116 cells is ≤ 1000 nM; with A549 cells, ≤ 1000 nM; with K562 cells, ≤ 1000 nM; in test [1], 100 to 1000 nM.
Take `COc1cccc(CN2CCC3(CC2)CC(=O)c2cc(/C=C/C(=O)NO)ccc2O3)c1` [Example 32, (E)-3-{1′-(3-Methoxy-benzyl)-4-oxo-spiro[chromane-2,4′-piperidine]-6-yl}-N-hydroxy-acrylamide]: the IC50 in the test on HCT-116 cells is ≤ 1000 nM; in the test on A549 cells, 1000 to 3000 nM; in the test on K562 cells, ≤ 1000 nM; in test [1], 100 to 1000 nM.
For the compound `COc1ccc(CN2CCC3(CC2)CC(=O)c2cc(/C=C/C(=O)NO)ccc2O3)cc1` [Example 33, (E)-3-{1′-(4-Methoxy-benzyl)-4-oxo-spiro[chromane-2,4′-piperidine]-6-yl}-N-hydroxy-acrylamide], the 50% inhibitory concentration (IC50) is ≤ 1000 nM in the test on HCT-116 cells, ≤ 1000 nM with A549 cells, ≤ 1000 nM in the test with K562 cells and 100 to 1000 nM in test [1].
As to `O=C(/C=C/c1ccc2c(c1)C(=O)CC1(CCN(Cc3ccccc3F)CC1)O2)NO` [Example 34, (E)-3-{1′-(2-Fluoro-benzyl)-4-oxo-spiro[chromane-2,4′-piperidine]-6-yl}-N-hydroxy-acrylamide], the IC50 in the test on HCT-116 cells was ≤ 1000 nM; with A549 cells, 1000 to 3000 nM; in the test with K562 cells, ≤ 1000 nM; in test [1], 100 to 1000 nM.
Regarding `O=C(/C=C/c1ccc2c(c1)C(=O)CC1(CCN(Cc3cccc(F)c3)CC1)O2)NO` [Example 35, (E)-3-{1′-(3-Fluoro-benzyl)-4-oxo-spiro[chromane-2,4′-piperidine]-6-yl}-N-hydroxy-acrylamide], the IC50 in the test with HCT-116 cells was 1000 to 3000 nM; with A549 cells, 1000 to 3000 nM; in the test with K562 cells, ≤ 1000 nM; in test [1], 100 to 1000 nM.
For `O=C(/C=C/c1ccc2c(c1)C(=O)CC1(CCN(Cc3ccc(F)cc3)CC1)O2)NO` [Example 36, (E)-3-{1′-(4-Fluoro-benzyl)-4-oxo-spiro[chromane-2,4′-piperidine]-6-yl}-N-hydroxy-acrylamide], the IC50 with HCT-116 cells was ≤ 1000 nM; with A549 cells, 1000 to 3000 nM; in the test on K562 cells it was ≤ 1000 nM; in test [1], 100 to 1000 nM.
For the compound `O=C(/C=C/c1ccc2c(c1)C(=O)CC1(CCN(Cc3ccccc3Cl)CC1)O2)NO` [Example 37, (E)-3-{1′-(2-Chloro-benzyl)-4-oxo-spiro[chromane-2,4′-piperidine]-6-yl}-N-hydroxy-acrylamide], the IC50 in the test with HCT-116 cells lay in the range of 1000 to 3000 nM; in the test on A549 cells it was 1000 to 3000 nM; in the test on K562 cells it was 1000 to 3000 nM; in test [1] it was 100 to 1000 nM.
